The values that follow come from patent US20060029544A1, “Receptor-binding cyclic peptides and methods of use” (The Regents of the University of California Office of …, priority 2004, published 2006).

In assay [1] the target is T1, α5β1 integrin (Homo sapiens, UniProt P05556+P08648).
T1 construct: chimeras comprising the extracellular domain of αvβ3, αvβ5, α5β1, and αIIbβ3 linked to the Fc domain of either mouse IgG; purchased Celltech plc (supplied, no catalogue number)
Nature of the assay: ELISA: soluble α5β1-hFc binding to immobilized 50 kDa fibronectin fragment in the presence of RGD peptides. The note with it: 20 μM peptide. From the text: Four different soluble integrins were supplied by Celltech plc. Soluble forms of αvβ3, αvβ5, α5β1, and αIIbβ3 integrin were generated by constructing chimeras comprising the extracellular domain of αvβ3, αvβ5, α5β1, and αIIbβ3 linked to the Fc domain of either mouse IgG (αvβ3-mFc, αvβ5-mFc, and αIIbβ3-mFc) or human IgG (α5β1-hFc) as described by Stephens et al., Cell Adhes. Commun., 7:377-390 (2000) and Coe et al., J. Biol. Chem., 276:35854-35866 (2001). Since the four soluble integrin chimeras were supplied either as purified proteins (αvβ3-mFc and α5β1-hFc) or as unpurified hybridoma supernatants (αIIbβ3-mFc and αvβ5-mFc), it was necessary to use two types of ELISAs. […] In one type of ELISA (FIGS. 2A and 2B), the immobilized component is a 50 kDa fragment of fibronectin. In the second type of ELISA (FIGS. 2C and 2D), the immobilized component is a goat anti-mFc antibody that is used to capture chimeric proteins so that the RGD binding site of the integrin is maximally exposed. Each three-sided box in FIG. 2 represents a single well of a 96-well plate, and the components are listed in the sequence of their addition to the assay. The immobilized component at the bottom of the well is bound to the well by electrostatic interactions.
To analyze the affinity and selectively of RGD peptides for αvβ3 and α5β1, 96-well ELISA plates were coated with 100 μl of a 5 μg/ml of the 50 kDa fragment of fibronectin in PBS per well and left overnight at 4° C. The plates were washed with PBS using a Denley Wellwash 4 Mk 2. Washing was repeated twice with a 400 μl wash per well. 200 μ/well of blocking buffer (i.e., to prevent non-specific binding of proteins) was then added for 1 hour followed by a repeat washing with PBS. RGD peptides were then added at a maximum concentration of 200 μM and a preliminary screen was performed at three concentrations, 200,20, and 2 μM. 100 μl of an RGD peptide was added to each well and each assay was performed in triplicate. Purified soluble αvβ3-mFc or purified α5β1-hFc was diluted to 2 μg/ml and 15 ng/ml, respectively, in conjugate buffer and 100 μl was added to each well. The plates were incubated for 2 hours with shaking using a Luckham R100 Rotatest at approximately 150 rpm. After incubation, the plates were washed with PBS as previously described and a labeled antibody was added. For the αvβ3 assay, a horseradish peroxidase (HRP)-labeled F(ab′)2 fragment of goat anti-mouse IgG Fc was diluted 1:2000 in conjugate buffer and 100 μl was added to each well. For the α5β1 assay, an HRP-labeled F(ab′)2 fragment of goat anti-human IgG Fc was diluted 1:2000 in conjugate buffer and 100 μl was added to each well. Plates were incubated for 30 minutes with shaking followed by 2 washes with PBS. 100 μl of TMB substrate was added to each well and plates were shaken during a 10 minute color development. Plates were read using a plate spectrophotometer at 630 nm.
Two negative and two positive controls were used in both types of ELISAs. For example, the negative controls were wells that contained 50 μl of an active control peptide, integrin, and biotinylated ligand or 50 μl of the active control peptide and 50 μl of buffer. These negative control wells typically develop little to no color. […] These wells typically develop the maximum amount of color.
FIGS. 3-6 illustrate the percent binding of the vitronectin, fibronectin, or fibrinogen ligand to αvβ5, α5β1, αIIbβ3, or αvβ3 integrin in the presence of RGD peptides (i.e., linear (A), cyclic (B), or 4-[^19F]-fluorobenzoyl cyclic (C)) at different concentrations, with 100% maximum signal being the signal obtained in the absence of the peptide.
For orientation: An ELISA detects its analyte on a solid surface through an enzyme-linked reagent.

Assay [2] relates to A375M melanoma cell line. Nature of the assay: Adhesion assay: [51Cr]-A375M cells to laminin. In kind it is cell-based, human. The note with it: 200 μM peptide. The method, then:
RGD peptides were plated at a maximum concentration of 200 μM and a minimum concentration of 2 nM. For each RGD peptide sequence, linear peptides (A), cyclic peptides (B), and 4-[^19F]-fluorobenzoyl cyclic peptides (C) were assayed. Each RGD peptide concentration was performed in quadruplicate and each experiment was repeated twice.
Plastic 96-well plates (Falcon 3912; Becton Dickinson) were coated with 50 μl substrate (10 μg/ml laminin or 5 μg/ml vitronectin). The plates were incubated at 37° C. in an 8% CO2 atmosphere for 1 hour. Unbound protein was flicked off and the plates were washed with phosphate buffered saline (PBS) and blocked with bovine serum albumin (0.1% w/v BSA)/PBS/0.1% sodium azide) for 1 hour. The plates were then washed with PBS, placed on a bed of ice and 25 μl of peptide was added to the wells.
Sodium [^51Cr] chromate was purchased from Amersham International, UK. The solution was made isotonic by the addition of 110 μl 10× Hanks buffered salt solution. 100 μl of this solution (3.7 MBq) was added to 5-10×10^6 cells in 500 μl of serum-containing growth medium. The suspension was incubated at 37° C. for 45 minutes with regular agitation to resuspend the cells. The cells were then washed and spun 3 times with serum-free E4 medium to remove any free [^51Cr]chromium. A trypan blue viability count was performed and the cells were diluted to the necessary volume in serum-free E4 medium (4×10^5 cells/ml).
25 μl (about 10,000 cells) were added to each quadruplicate well and the plates incubated at 37° C. in an 8% CO2 atmosphere for 1 hour. Unbound cells were flicked off and the plates were washed twice with PBS/BSA containing 1 mM CaCl2 and 0.5 mM MgCl2. The plates were dabbed dry and cut into individual wells. The radioactivity associated with each well was determined in a gamma counter (1261 Multigamma; Wallac, Sweden). Quadruplicate 25 μl samples of labeled cells were counted as 100% input values. To determine non-specific binding, the ability of cells to bind BSA-coated wells was also assessed. Data for these wells are referred to as background.
The results were calculated as follows: [formula] [formula] NMR Spectroscopy of RGD Peptides
The A375M and VUP melanoma cell lines were used with vitronectin and laminin as substrates. Peptides were titrated in 10-fold dilutions from 200 μM to 2 nM. All data were normalized to the absence of peptide, which corresponded to 100% adhesion. All titrations were performed in quadruplicate and each experiment was repeated at least twice.

T1 sequence (P08648 42-995 limits assumed): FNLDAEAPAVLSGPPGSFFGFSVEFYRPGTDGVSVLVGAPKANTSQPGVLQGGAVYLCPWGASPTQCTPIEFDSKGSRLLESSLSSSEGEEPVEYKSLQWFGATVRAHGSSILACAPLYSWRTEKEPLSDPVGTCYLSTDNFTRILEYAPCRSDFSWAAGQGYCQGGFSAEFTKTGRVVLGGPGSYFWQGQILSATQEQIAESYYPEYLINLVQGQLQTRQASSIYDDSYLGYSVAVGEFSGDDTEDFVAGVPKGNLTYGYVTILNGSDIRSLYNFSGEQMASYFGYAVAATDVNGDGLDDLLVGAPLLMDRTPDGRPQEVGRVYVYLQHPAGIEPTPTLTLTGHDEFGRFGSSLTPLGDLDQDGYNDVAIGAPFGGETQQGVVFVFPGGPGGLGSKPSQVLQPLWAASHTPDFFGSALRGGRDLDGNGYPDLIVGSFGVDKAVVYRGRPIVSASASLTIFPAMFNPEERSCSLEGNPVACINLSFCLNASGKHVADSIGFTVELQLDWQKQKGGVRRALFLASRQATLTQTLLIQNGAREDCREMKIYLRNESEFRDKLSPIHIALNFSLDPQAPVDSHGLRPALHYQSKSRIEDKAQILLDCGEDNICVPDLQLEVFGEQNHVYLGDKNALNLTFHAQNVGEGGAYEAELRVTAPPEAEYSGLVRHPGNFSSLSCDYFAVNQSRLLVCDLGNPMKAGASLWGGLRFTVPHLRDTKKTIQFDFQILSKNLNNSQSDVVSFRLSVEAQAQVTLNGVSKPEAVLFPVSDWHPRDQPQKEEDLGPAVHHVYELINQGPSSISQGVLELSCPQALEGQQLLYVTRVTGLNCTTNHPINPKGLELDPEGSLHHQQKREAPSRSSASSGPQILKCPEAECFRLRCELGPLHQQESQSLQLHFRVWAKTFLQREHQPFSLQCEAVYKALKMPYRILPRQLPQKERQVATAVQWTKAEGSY
T1 sequence (P05556 21-728 limits assumed): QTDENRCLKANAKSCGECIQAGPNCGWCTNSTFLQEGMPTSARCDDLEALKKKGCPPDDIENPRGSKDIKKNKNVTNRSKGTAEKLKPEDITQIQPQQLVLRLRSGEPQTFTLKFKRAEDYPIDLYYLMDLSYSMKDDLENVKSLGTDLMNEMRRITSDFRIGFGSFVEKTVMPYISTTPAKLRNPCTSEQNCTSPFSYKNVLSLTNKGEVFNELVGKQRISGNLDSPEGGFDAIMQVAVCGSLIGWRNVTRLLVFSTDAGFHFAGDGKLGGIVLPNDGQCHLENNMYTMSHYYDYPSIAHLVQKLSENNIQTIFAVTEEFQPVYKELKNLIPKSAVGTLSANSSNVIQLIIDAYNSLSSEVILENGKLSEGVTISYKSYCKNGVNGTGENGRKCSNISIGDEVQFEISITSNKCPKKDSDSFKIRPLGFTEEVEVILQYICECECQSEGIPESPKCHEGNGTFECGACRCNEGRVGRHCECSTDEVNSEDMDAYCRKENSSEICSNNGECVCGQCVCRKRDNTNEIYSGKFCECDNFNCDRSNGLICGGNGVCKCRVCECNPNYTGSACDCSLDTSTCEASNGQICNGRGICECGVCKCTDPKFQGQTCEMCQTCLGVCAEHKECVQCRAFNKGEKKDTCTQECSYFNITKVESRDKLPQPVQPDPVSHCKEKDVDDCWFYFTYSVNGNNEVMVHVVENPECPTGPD

Consider RGDY(OMe)K [B7], for which the “fibronectin binding to α5β1, % of the maximum signal” value in assay [1] is recorded as 48.4%. Also, the “adhesion of [51Cr]-A375M cells to laminin, normalized to absence of peptide (100%)” value in assay [2] is given as 50.40%±1.24%.
